biological target: human Nav 1.8 (Homo sapiens, UniProt Q9Y5Y9); test: E-VIPR assay detecting and measuring Nav inhibition properties; format: cell-based; conditions: HEK cells expressing a truncated form of human Nav 1.8; compound numbers without "*" (not marked as run in the presence of human serum); read-out: measured IC50 value in the E-VIPR Assay
Summary of the method: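 Nav inhibition was read by E-VIPR: cells were electrically stimulated while coumarin/oxonol FRET emissions were recorded. Cells were HEK expressing a truncated human Nav 1.8 and co-transduced with KIR2.1, and were assayed in 25% final human serum.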

Chain of human Nav 1.8 (Q9Y5Y9 126-399 limits assumed): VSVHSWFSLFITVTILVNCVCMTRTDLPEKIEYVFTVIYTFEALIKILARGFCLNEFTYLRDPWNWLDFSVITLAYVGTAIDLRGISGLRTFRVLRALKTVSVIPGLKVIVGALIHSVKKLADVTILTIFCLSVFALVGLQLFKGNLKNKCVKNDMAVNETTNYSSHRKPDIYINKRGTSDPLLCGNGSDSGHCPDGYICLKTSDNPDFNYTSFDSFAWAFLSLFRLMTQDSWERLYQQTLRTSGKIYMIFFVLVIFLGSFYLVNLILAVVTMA
Chain of human Nav 1.8 (Q9Y5Y9 660-890 limits assumed): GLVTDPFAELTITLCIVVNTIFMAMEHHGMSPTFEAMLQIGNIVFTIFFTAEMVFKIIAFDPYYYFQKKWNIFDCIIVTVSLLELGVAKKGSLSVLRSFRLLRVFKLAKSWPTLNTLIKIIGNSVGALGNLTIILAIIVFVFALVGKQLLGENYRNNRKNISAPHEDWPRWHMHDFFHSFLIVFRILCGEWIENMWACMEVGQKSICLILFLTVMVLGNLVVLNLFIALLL
Chain of human Nav 1.8 (Q9Y5Y9 1148-1722 limits assumed): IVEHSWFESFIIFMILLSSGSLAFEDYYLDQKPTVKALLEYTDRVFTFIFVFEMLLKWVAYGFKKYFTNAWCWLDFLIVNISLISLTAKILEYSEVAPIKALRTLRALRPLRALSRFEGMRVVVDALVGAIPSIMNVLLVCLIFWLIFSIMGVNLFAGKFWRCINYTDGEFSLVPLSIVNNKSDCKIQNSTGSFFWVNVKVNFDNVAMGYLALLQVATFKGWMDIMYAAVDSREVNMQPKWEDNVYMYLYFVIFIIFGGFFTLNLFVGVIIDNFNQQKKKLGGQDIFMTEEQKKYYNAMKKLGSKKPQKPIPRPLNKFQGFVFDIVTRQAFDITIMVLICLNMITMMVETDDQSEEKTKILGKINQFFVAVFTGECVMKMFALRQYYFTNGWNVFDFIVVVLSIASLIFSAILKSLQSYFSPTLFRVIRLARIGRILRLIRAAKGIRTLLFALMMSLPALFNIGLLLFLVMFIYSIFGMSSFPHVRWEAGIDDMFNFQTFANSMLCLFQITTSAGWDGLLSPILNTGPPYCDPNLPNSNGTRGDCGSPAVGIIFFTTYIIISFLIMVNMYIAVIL

Structure (SMILES) | IC50
COC1CC(Oc2c([C@H]3[C@H](C(=O)Nc4ccnc(C(N)=O)c4)O[C@@](C)(C(F)(F)F)[C@H]3C)ccc(F)c2F)C1 (stereo partly drawn) [Compound 162, 4-((2R,3S,4S,5R)-3-(3,4-difluoro-2-(3-methoxycyclobutoxy)phenyl)-4,5-dimethyl-5-(trifluoromethyl)tetrahydrofuran-2-carboxamido)picolinamide] | < 0.01 µM
C[C@H]1[C@@H](c2ccc(F)c(F)c2OC2CC(O)C2)[C@H](C(=O)Nc2ccnc(C(N)=O)c2)O[C@@]1(C)C(F)(F)F (stereo partly drawn) [Compound 163, 4-((2R,3S,4S,5R)-3-(3,4-difluoro-2-(3-hydroxycyclobutoxy)phenyl)-4,5-dimethyl-5-(trifluoromethyl)tetrahydrofuran-2-carboxamido)picolinamide] | < 0.01 µM
CC1C(c2ccc(F)c(F)c2OC2CC(O)C2)C(C(=O)Nc2ccnc(C(N)=O)c2)OC1(C)C(F)(F)F [Compound 166, 4-((2R,3S,4S,5R)-3-(3,4-difluoro-2-((1s,3R)-3-hydroxycyclobutoxy)phenyl)-4,5-dimethyl-5-(trifluoromethyl)tetrahydrofuran-2-carboxamido)picolinamide] | < 0.01 µM
CC(=O)C1CC(Oc2c([C@H]3[C@H](C(=O)Nc4ccnc(C(N)=O)c4)O[C@@](C)(C(F)(F)F)[C@H]3C)ccc(F)c2F)C1 (stereo partly drawn) [Compound 170, 4-((2R,3S,4S,5R)-3-(2-(3-acetylcyclobutoxy)-3,4-difluorophenyl)-4,5-dimethyl-5-(trifluoromethyl)tetrahydrofuran-2-carboxamido)picolinamide] | < 0.01 µM
C[C@H]1[C@@H](c2ccc(F)c(F)c2OC2CC(F)(F)C2)[C@H](C(=O)Nc2ccnc(C(N)=O)c2)O[C@@]1(C)C(F)(F)F [Compound 173, 4-((2R,3S,4S,5R)-3-(2-(3,3-difluorocyclobutoxy)-3,4-difluorophenyl)-4,5-dimethyl-5-(trifluoromethyl)tetrahydrofuran-2-carboxamido)picolinamide] | < 0.01 µM
C[C@H]1[C@@H](c2ccc(F)c(F)c2OC2CC(C)(O)C2)[C@H](C(=O)Nc2ccnc(C(N)=O)c2)O[C@@]1(C)C(F)(F)F (stereo partly drawn) [Compound 174, 4-((2R,3S,4S,5R)-3-(3,4-difluoro-2-(3-hydroxy-3-methylcyclobutoxy)phenyl)-4,5-dimethyl-5-(trifluoromethyl)tetrahydrofuran-2-carboxamido)picolinamide] | < 0.01 µM
COc1c([C@H]2[C@H](C(=O)Nc3ccnc(C(N)=O)c3)O[C@@](C)(C(F)(F)F)[C@H]2C)cc(OC2CC(F)(F)C2)c(F)c1F [Compound 179, 4-((2R,3S,4S,5R)-3-(5-(3,3-difluorocyclobutoxy)-3,4-difluoro-2-methoxyphenyl)-4,5-dimethyl-5-(trifluoromethyl)tetrahydrofuran-2-carboxamido) picolinamide] | 0.1 to 1 µM
C[C@H]1[C@@H](c2ccc(F)c(F)c2OCC(=NO)C2CC2)[C@H](C(=O)Nc2ccnc(C(N)=O)c2)O[C@@]1(C)C(F)(F)F [Compound 182, 4-((2R,3S,4S,5R)-3-(2-(2-cyclopropyl-2-(hydroxyimino)ethoxy)-3,4-difluorophenyl)-4,5-dimethyl-5-(trifluoromethyl)tetrahydrofuran-2-carboxamido) picolinamide] | < 0.01 µM
CC(C)C(COc1c([C@H]2[C@H](C(=O)Nc3ccnc(C(N)=O)c3)O[C@@](C)(C(F)(F)F)[C@H]2C)ccc(F)c1F)=NO [Compound 186, 4-((2R,3S,4S,5R)-3-(3,4-difluoro-2-(2-(hydroxyimino)-3-methylbutoxy)phenyl)-4,5-dimethyl-5-(trifluoromethyl)tetrahydrofuran-2-carboxamido)picolinamide] | < 0.01 µM
C[C@H]1[C@@H](c2ccc(F)c(F)c2OC/C(=N\O)C(C)(C)C)[C@H](C(=O)Nc2ccnc(C(N)=O)c2)O[C@@]1(C)C(F)(F)F [Compound 189, 4-((2R,3S,4S,5R)-3-(3,4-difluoro-2-((Z)-2-(hydroxyimino)-3,3-dimethylbutoxy)phenyl)-4,5-dimethyl-5-(trifluoromethyl)tetrahydrofuran-2-carboxamido)picolinamide] | < 0.01 µM

Now from value to compound:

IC50 | Structure (SMILES)
< 0.01 µM | C[C@H]1[C@@H](c2ccc(F)c(F)c2OCCC2(O)CC2)[C@H](C(=O)Nc2ccnc(C(N)=O)c2)O[C@@]1(C)C(F)(F)F [Compound 156, 4-((2R,3S,4S,5R)-3-(3,4-difluoro-2-(2-(1-hydroxycyclopropyl)ethoxy)phenyl)-4,5-dimethyl-5-(trifluoromethyl)tetrahydrofuran-2-carboxamido)picolinamide]
< 0.01 µM | C[C@@H](Oc1c([C@H]2[C@H](C(=O)Nc3ccnc(C(N)=O)c3)O[C@@](C)(C(F)(F)F)[C@H]2C)ccc(F)c1F)C1COC1 [Compound 157, 4-((2R,3S,4S,5R)-3-(3,4-difluoro-2-((R)-1-(oxetan-3-yl)ethoxy)phenyl)-4,5-dimethyl-5-(trifluoromethyl)tetrahydrofuran-2-carboxamido)picolinamide]
< 0.01 µM | C[C@H](Oc1c([C@H]2[C@H](C(=O)Nc3ccnc(C(N)=O)c3)O[C@@](C)(C(F)(F)F)[C@H]2C)ccc(F)c1F)C1COC1 [Compound 158, 4-((2R,3S,4S,5R)-3-(3,4-difluoro-2-((S)-1-(oxetan-3-yl)ethoxy)phenyl)-4,5-dimethyl-5-(trifluoromethyl)tetrahydrofuran-2-carboxamido)picolinamide]
< 0.01 µM | C[C@H]1[C@@H](c2ccc(F)c(F)c2OCC2(O)CC2)[C@H](C(=O)Nc2ccnc(C(N)=O)c2)O[C@@]1(C)C(F)(F)F [Compound 159, 4-((2R,3S,4S,5R)-3-(3,4-difluoro-2-((1-hydroxycyclopropyl)methoxy)phenyl)-4,5-dimethyl-5-(trifluoromethyl)tetrahydrofuran-2-carboxamido)picolinamide]
< 0.01 µM | C[C@H]1[C@@H](c2ccc(F)c(F)c2OCc2cn[nH]c2)[C@H](C(=O)Nc2ccnc(C(N)=O)c2)O[C@@]1(C)C(F)(F)F [Compound 168, 4-((2R,3S,4S,5R)-3-(2-((1H-pyrazol-4-yl)methoxy)-3,4-difluorophenyl)-4,5-dimethyl-5-(trifluoromethyl)tetrahydrofuran-2-carboxamido)picolinamide]
< 0.01 µM | C[C@H]1[C@@H](c2ccc(F)c(F)c2OCC(CO)C(F)(F)F)[C@H](C(=O)Nc2ccnc(C(N)=O)c2)O[C@@]1(C)C(F)(F)F (stereo partly drawn) [Compound 169, 4-((2R,3S,4S,5R)-3-(3,4-difluoro-2-(3,3,3-trifluoro-2-(hydroxymethyl)propoxy)phenyl)-4,5-dimethyl-5-(trifluoromethyl)tetrahydrofuran-2-carboxamido)picolinamide]
0.1 to 1 µM | C[C@H]1[C@@H](c2ccc(F)c(F)c2OC2CS(=O)(=O)C2)[C@H](C(=O)Nc2ccnc(C(N)=O)c2)O[C@@]1(C)C(F)(F)F [Compound 171, 4-((2R,3S,4S,5R)-3-(2-((1,1-dioxidothietan-3-yl)oxy)-3,4-difluorophenyl)-4,5-dimethyl-5-(trifluoromethyl)tetrahydrofuran-2-carboxamido)picolinamide]
0.01 to 0.1 µM | C=C(/C=C/Oc1c([C@H]2[C@H](C(=O)Nc3ccnc(C(N)=O)c3)O[C@@](C)(C(F)(F)F)[C@H]2C)ccc(F)c1F)C(F)(F)F [Compound 172, 4-((2R,3S,4S,5R)-3-(3,4-difluoro-2-(((E)-3-(trifluoromethyl)buta-1,3-dien-1-yl)oxy)phenyl)-4,5-dimethyl-5-(trifluoromethyl)tetrahydrofuran-2-carboxamido)picolinamide]
< 0.01 µM | C[C@H]1[C@@H](c2ccc(F)c(F)c2OC2CCC(O)C2)[C@H](C(=O)Nc2ccnc(C(N)=O)c2)O[C@@]1(C)C(F)(F)F (stereo partly drawn) [Compound 175, 4-((2R,3S,4S,5R)-3-(3,4-difluoro-2-((3-hydroxycyclopentyl)oxy)phenyl)-4,5-dimethyl-5-(trifluoromethyl)tetrahydrofuran-2-carboxamido)picolinamide]
≥ 1 µM | C[C@H]1[C@@H](c2cc(Br)c(F)c(F)c2O)[C@H](C(=O)Nc2ccnc(C(N)=O)c2)O[C@@]1(C)C(F)(F)F [Compound 176, 4-((2R,3S,4S,5R)-3-(5-bromo-3,4-difluoro-2-hydroxyphenyl)-4,5-dimethyl-5-(trifluoromethyl)tetrahydrofuran-2-carboxamido)picolinamide]
< 0.01 µM | COc1c([C@H]2[C@H](C(=O)Nc3ccnc(C(N)=O)c3)O[C@@](C)(C(F)(F)F)[C@H]2C)cc(OCc2ccccc2)c(F)c1F [Compound 177, 4-((2R,3S,4S,5R)-3-(5-(benzyloxy)-3,4-difluoro-2-methoxyphenyl)-4,5-dimethyl-5-(trifluoromethyl)tetrahydrofuran-2-carboxamido) picolinamide]
< 0.01 µM | COc1c([C@H]2[C@H](C(=O)Nc3ccnc(C(N)=O)c3)O[C@@](C)(C(F)(F)F)[C@H]2C)cc(O)c(F)c1F [Compound 178, 4-((2R,3S,4S,5R)-3-(3,4-difluoro-5-hydroxy-2-methoxyphenyl)-4,5-dimethyl-5-(trifluoromethyl)tetrahydrofuran-2-carboxamido) picolinamide]
0.01 to 0.1 µM | Cc1cnc(C(N)=O)cc1NC(=O)[C@@H]1O[C@@](C)(C(F)(F)F)[C@@H](C)[C@H]1c1ccc(F)c(F)c1OCCN1CC2(COC2)C1 [Compound 181, 4-((2R,3S,4S,5R)-3-(2-(2-(2-oxa-6-azaspiro[3.3]heptan-6-yl)ethoxy)-3,4-difluorophenyl)-4,5-dimethyl-5-(trifluoromethyl)tetrahydrofuran-2-carboxamido)-5-methylpicolinamide]
< 0.01 µM | C/C(COc1c([C@H]2[C@H](C(=O)Nc3ccnc(C(N)=O)c3)O[C@@](C)(C(F)(F)F)[C@H]2C)ccc(F)c1F)=N\O [Compound 185, 4-((2R,3S,4S,5R)-3-(3,4-difluoro-2-((E)-2-(hydroxyimino)propoxy)phenyl)-4,5-dimethyl-5-(trifluoromethyl)tetrahydrofuran-2-carboxamido)picolinamide]

— patent publication US20250213555A1, “SUBSTITUTED TETRAHYDROFURAN ANALOGS AS MODULATORS OF SODIUM CHANNELS” (VERTEX PHARMACEUTICALS INCORPORATED, priority 2021, published 2025)
